From ChEMBL document CHEMBL1671786, “Probes for narcotic receptor mediated phenomena. 41. Unusual inverse μ-agonists and potent μ-opioid antagonists by modification of the N-substituent in enantiomeric 5-(3-hydroxyphenyl)morphans” (J Med Chem, 2011)
pKi: −log10 of the molar value.

How the values were obtained:
Mu-type opioid receptor [1] = target: T1, Mu-type opioid receptor (Homo sapiens, UniProt P35372); test: Displacement of [125I]IOXY from human recombinant mu opioid receptor expressed in CHO cells; assay type: cell-based
T1 sequence (P35372 whole entry): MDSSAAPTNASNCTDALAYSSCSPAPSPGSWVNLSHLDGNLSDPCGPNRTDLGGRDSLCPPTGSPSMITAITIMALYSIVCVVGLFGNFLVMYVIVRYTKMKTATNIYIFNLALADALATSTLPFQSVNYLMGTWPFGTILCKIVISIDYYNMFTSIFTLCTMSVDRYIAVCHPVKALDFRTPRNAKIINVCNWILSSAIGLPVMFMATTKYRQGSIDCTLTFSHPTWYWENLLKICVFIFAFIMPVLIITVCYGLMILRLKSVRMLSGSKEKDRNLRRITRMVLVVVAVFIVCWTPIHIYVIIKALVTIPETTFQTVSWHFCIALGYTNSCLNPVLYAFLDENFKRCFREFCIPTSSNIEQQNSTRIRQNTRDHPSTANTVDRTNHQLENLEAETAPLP

[2] = target: Kappa-type opioid receptor (Homo sapiens, UniProt P41145); test: Displacement of [125I]IOXY from human recombinant kappa opioid receptor expressed in CHO cells; assay type: cell-based
Sequence of Kappa-type opioid receptor (P41145 whole entry): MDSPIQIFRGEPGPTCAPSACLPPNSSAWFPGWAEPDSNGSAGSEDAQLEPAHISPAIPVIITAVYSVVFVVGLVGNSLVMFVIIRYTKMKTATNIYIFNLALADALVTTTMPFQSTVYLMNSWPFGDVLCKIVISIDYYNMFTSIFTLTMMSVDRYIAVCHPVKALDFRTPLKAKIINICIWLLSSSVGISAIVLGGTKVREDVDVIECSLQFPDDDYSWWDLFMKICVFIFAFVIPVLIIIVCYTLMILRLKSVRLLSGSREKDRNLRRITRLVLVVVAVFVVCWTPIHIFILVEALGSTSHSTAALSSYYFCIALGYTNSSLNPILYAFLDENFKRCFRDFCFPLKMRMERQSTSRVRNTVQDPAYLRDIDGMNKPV

[3] = target: Delta-type opioid receptor (Homo sapiens, UniProt P41143); test: Displacement of [125I]IOXY from human recombinant delta opioid receptor expressed in CHO cells; assay type: cell-based
Sequence of Delta-type opioid receptor (P41143 whole entry): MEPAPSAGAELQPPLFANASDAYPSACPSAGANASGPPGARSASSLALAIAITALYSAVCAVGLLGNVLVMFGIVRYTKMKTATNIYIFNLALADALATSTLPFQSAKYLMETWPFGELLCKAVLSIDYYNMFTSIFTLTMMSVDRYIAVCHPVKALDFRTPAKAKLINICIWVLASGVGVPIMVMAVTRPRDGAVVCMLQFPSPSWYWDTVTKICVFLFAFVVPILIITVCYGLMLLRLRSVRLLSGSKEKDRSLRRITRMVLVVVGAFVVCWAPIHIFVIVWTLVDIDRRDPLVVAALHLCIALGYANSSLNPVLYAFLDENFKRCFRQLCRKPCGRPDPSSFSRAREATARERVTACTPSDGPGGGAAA

Mu-type opioid receptor [4] = target: T1, Mu-type opioid receptor
Description: Inverse agonist activity at mu opioid receptor by [35S]GTPgammaS binding assay

Mu-type opioid receptor [5] = target: T1, Mu-type opioid receptor; test: Binding affinity to mu opioid receptor

| Structure (SMILES) | pKi (Mu-type opioid receptor [1]) | pKi [2] | pKi [3] | Ke (Mu-type opioid receptor [4]) | pKi (Mu-type opioid receptor [5]) |
| --- | --- | --- | --- | --- | --- |
| Oc1cccc([C@@]23CCC[C@@H](C2)N(C/C=C\c2ccccc2)CC3)c1 (single isomer, unassigned) | 7.85 | 6.44 | 6.44 | 7.7 nM | – |
| Oc1cccc([C@]23CCC[C@H](C2)N(C[C@H]2C[C@@H]2c2ccccc2)CC3)c1 | 7.80 | 6.49 | 6.74 | 2.2 nM | – |
| Oc1cccc(C23CCCC(C2)N(C/C=C/c2ccccc2)CC3)c1 (single isomer, unassigned; (+)) [listing 1 of 2 here] | 8.70 | 6.90 | 6.86 | – | – |
| Oc1cccc(C23CCCC(C2)N(C/C=C/c2ccccc2)CC3)c1 (single isomer, unassigned; (-)) [listing 1 of 2 here] | 8.22 | 6.65 | 6.82 | – | – |
| Oc1cccc([C@@]23CCC[C@@H](C2)N(C[C@@H]2C[C@H]2c2ccccc2)CC3)c1 | 8.40 | 6.68 | 6.70 | 0.31 nM | – |
| Oc1cccc([C@]23CCC[C@H](C2)N(C[C@@H]2C[C@@H]2c2ccccc2)CC3)c1 | 6.58 | 6.82 | 6.21 | 8.6 nM | – |
| Oc1cccc([C@@]23CCC[C@@H](C2)N(C[C@H]2C[C@@H]2c2ccccc2)CC3)c1 | 8.52 | 7.14 | 6.78 | 0.17 nM | – |
| Oc1cccc(C23CCCC(C2)N(C/C=C/c2ccccc2)CC3)c1 (single isomer, unassigned; (+)) [listing 2 of 2 here] | – | – | – | 0.58 nM | – |
| C[C@H]1CN(CC2CC2c2ccccc2)CC[C@@]1(C)c1cccc(O)c1 (some centres undefined) | – | – | – | – | 8.76 |
| Oc1cccc([C@@]23CCC[C@@H](C2)N(C[C@@H]2C[C@@H]2c2ccccc2)CC3)c1 | 7.96 | 6.49 | 6.71 | 8.2 nM | – |
| Oc1cccc([C@]23CCC[C@H](C2)N(C[C@@H]2C[C@H]2c2ccccc2)CC3)c1 | 7.33 | 6.41 | 6.10 | 9.4 nM | – |
| Oc1cccc([C@]23CCC[C@H](C2)N(C[C@H]2C[C@H]2c2ccccc2)CC3)c1 | 7.12 | 6.76 | 6.26 | 18 nM | – |
| Oc1cccc([C@]23CCC[C@H](C2)N(C/C=C\c2ccccc2)CC3)c1 (single isomer, unassigned) | 7.59 | 6.91 | 6.34 | 3.1 nM | – |
| Oc1cccc(C23CCCC(C2)N(C/C=C/c2ccccc2)CC3)c1 (single isomer, unassigned; (-)) [listing 2 of 2 here] | – | – | – | 6.6 nM | – |
| Oc1cccc([C@@]23CCC[C@@H](C2)N(C[C@H]2C[C@H]2c2ccccc2)CC3)c1 | 6.34 | 6.32 | 5.70 | 33 nM | – |
